The experiment concerns the target T1, PCP site on NMDA receptor.
T1 construct: gene Grin1; PCP (channel pore) site of the NMDA receptor complex
The experiment in a line: PCP-site binding assay. The conditions noted are these: read-out: PCP site / IC50/Ki. From the text: PCP-site binding assay on PCP site on NMDA receptor

Nor-Ketamir: the IC50 is roughly 470 µM.
As for `CNC1(c2ccccc2Cl)CCCC1=O` (centres unmarked) [Ketamir-2, 1-(2-chlorophenyl)-N-methyl-2-oxocyclopentan-1-aminium], the IC50 is roughly 100 µM.

Values taken from PMC12231361, “KETAMIR-2, a new molecular entity and novel ketamine analog” (Frontiers in Pharmacology, 2025).
